Key:
PIK3CD = PIK3CD (UniProt O00329); assay: pIC50, kinobeads binding competition; details: cell material: Jurkat cells
Procedure, shortened: (§1)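 Jurkat cells were exposed alive to nine compound concentrations (top 30 μM, 1:4 steps) or vehicle for 60 min at 37 °C and then lysed. In a second format, nine concentrations (top 30 μM, 1:5 steps) were incubated for 60 min at 4 °C with Jurkat lysate or with a 1:1:1:1 lysate mix of HEK293, K-562, HepG2 and placenta. Proteins captured on Kinobeads were digested and quantified by TMT10 LC-MS/MS. pIC50 values were derived from logistic dose-response fits (R drc package) of fold changes relative to vehicle, in biological duplicates.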

UniProt P05129 = assay: pIC50, kinobeads binding competition; details: cell material: Jurkat cells
Procedure, shortened: as §1

STRADB = STRADB (UniProt Q9C0K7); assay: pIC50, kinobeads binding competition; details: cell material: Lysate mix
Procedure, shortened: as §1

TWF1 = TWF1 (UniProt Q12792); assay: pIC50, kinobeads binding competition; details: cell material: Lysate mix
TWF1, sequence (Q12792 whole entry): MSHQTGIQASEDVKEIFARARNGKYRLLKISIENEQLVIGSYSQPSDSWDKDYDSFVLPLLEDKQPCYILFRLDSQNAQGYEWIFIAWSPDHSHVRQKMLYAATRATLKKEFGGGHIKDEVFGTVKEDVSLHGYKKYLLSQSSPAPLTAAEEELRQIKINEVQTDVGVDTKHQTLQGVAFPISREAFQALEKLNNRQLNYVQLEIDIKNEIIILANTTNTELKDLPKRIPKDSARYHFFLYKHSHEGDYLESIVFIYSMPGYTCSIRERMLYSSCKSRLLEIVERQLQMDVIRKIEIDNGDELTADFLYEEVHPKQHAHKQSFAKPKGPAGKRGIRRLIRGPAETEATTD
Procedure, shortened: as §1

UniProt P78368 = assay: pIC50, kinobeads binding competition; details: cell material: Lysate mix
Procedure, shortened: as §1

UniProt Q9P286 = assay: pIC50, kinobeads binding competition; details: cell material: Lysate mix
Procedure, shortened: as §1

CDKL5 = biological target: T1, CDKL5 (UniProt O76039); assay: pIC50, competition of probe 3 labelling in live cells; details: cell material: Jurkat cells
T1 sequence (whole entry): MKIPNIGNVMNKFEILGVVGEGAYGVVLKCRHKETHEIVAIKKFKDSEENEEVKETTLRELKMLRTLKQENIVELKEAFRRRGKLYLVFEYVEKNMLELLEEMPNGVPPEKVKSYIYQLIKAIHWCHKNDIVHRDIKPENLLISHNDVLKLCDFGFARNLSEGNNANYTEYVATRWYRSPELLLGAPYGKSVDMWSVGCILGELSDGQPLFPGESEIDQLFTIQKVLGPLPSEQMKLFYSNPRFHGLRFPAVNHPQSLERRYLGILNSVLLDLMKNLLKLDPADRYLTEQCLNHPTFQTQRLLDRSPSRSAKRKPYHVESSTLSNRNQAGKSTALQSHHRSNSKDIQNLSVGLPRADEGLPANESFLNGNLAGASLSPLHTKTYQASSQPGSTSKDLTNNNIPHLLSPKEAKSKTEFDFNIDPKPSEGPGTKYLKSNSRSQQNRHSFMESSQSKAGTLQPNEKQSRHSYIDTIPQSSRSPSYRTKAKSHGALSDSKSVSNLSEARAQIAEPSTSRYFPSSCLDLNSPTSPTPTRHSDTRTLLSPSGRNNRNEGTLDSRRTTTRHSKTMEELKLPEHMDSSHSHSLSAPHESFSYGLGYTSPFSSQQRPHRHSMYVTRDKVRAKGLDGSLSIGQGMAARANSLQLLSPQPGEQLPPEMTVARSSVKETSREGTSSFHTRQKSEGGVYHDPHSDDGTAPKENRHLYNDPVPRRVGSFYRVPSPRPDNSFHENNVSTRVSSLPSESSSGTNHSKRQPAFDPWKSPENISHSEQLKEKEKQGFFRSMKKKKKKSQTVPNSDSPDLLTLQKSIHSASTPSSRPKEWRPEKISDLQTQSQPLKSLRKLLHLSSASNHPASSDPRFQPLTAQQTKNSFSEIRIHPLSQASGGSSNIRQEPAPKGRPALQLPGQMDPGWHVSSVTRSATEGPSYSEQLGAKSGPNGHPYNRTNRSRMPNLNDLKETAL

NEK9 = biological target: T2, NEK9 (UniProt Q8TD19); assay: as above; details: cell material: Jurkat cells
T2 sequence (whole entry): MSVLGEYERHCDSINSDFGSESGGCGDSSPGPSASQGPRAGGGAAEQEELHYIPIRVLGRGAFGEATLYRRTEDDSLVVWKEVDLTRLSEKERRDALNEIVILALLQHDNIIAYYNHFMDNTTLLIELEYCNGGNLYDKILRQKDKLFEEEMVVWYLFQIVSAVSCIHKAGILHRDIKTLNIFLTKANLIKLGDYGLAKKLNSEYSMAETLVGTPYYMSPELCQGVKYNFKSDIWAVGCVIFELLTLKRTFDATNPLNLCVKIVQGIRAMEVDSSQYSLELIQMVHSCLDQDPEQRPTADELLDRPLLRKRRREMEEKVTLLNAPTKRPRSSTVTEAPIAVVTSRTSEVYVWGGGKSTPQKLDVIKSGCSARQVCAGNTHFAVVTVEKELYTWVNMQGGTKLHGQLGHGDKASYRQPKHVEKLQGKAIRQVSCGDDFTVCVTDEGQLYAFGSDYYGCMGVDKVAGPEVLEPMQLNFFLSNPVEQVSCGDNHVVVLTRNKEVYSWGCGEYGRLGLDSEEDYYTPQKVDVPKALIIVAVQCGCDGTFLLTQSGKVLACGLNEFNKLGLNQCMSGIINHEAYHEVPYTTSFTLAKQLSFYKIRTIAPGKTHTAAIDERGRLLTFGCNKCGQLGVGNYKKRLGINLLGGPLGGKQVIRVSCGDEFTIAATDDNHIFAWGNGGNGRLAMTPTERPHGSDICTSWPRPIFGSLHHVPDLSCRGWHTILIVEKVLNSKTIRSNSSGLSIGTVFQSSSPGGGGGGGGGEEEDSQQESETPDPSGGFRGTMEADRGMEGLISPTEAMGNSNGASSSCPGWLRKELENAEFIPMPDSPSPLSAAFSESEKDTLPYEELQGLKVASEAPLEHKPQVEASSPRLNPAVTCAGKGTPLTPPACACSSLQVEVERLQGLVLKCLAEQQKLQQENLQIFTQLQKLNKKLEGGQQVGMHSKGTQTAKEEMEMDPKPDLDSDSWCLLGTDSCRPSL

UniProt Q14289 = assay: as above; details: cell material: Jurkat cells
UniProt Q14289, sequence (Q14289 whole entry, looked up): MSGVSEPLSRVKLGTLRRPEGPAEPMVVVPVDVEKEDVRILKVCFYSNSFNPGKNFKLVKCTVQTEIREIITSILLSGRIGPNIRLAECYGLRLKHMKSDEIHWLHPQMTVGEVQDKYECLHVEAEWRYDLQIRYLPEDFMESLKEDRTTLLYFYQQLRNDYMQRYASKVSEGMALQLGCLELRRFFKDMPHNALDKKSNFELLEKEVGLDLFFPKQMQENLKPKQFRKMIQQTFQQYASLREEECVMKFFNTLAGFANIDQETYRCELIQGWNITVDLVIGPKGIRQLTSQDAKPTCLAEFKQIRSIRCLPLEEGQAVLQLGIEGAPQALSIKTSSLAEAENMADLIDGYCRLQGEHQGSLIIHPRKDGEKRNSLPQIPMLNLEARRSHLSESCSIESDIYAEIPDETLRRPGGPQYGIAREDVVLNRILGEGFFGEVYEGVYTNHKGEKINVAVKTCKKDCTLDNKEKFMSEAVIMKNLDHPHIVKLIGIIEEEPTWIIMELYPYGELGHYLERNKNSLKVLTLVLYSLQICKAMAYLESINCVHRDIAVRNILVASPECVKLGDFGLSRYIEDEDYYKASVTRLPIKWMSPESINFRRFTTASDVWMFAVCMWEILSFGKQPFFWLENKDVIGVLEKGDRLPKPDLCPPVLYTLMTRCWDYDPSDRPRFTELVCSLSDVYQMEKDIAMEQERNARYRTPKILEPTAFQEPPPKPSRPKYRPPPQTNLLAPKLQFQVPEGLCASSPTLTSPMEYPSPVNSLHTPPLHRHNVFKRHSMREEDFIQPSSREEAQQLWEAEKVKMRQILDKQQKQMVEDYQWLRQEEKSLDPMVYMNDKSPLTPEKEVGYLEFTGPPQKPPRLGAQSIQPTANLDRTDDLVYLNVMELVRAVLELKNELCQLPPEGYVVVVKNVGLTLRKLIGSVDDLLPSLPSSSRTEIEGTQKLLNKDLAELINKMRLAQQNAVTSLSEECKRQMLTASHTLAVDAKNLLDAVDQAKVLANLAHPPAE

UniProt Q9NWV4 = assay: as above; details: cell material: Jurkat cells
UniProt Q9NWV4, sequence (Q9NWV4 whole entry): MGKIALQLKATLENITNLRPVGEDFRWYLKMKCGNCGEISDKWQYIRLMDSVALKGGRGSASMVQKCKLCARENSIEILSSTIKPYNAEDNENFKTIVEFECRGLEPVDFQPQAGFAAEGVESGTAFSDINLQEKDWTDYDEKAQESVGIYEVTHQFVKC

UniProt P19525 = assay: pIC50, kinobeads binding competition; details: cell material: Lysate mix
Procedure, shortened: as §1

UniProt P35590 = assay: pIC50, kinobeads binding competition; details: cell material: Lysate mix
UniProt P35590, sequence (P35590 whole entry): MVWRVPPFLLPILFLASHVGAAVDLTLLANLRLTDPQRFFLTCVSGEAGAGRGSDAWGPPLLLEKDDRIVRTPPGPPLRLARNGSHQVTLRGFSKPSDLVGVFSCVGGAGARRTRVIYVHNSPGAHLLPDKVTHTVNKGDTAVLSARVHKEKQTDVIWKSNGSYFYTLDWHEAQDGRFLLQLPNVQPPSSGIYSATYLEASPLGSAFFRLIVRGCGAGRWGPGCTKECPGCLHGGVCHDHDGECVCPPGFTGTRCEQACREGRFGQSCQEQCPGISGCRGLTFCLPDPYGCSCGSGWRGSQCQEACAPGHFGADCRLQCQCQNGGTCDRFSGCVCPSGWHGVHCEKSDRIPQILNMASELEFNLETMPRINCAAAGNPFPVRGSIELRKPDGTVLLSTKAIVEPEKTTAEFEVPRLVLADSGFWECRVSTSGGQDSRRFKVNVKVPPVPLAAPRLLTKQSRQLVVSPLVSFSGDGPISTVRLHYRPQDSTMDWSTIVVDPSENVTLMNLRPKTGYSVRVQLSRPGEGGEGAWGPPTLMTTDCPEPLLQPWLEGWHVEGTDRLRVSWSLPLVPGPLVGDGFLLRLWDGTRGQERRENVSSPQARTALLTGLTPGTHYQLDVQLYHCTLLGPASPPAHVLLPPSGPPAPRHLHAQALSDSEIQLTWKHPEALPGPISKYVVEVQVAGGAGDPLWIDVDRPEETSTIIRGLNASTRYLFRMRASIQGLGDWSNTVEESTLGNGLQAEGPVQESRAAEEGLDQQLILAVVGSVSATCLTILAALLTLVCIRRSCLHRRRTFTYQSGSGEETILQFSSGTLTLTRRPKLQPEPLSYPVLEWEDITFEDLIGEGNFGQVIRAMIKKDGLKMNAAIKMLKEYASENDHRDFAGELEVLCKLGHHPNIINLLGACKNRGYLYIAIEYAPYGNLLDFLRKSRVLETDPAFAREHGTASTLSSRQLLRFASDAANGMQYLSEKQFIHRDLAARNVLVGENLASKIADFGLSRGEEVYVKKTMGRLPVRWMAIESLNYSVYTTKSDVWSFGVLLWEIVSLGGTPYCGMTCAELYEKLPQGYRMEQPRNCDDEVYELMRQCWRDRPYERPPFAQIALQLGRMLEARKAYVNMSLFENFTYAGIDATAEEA
Procedure, shortened: as §1

UniProt Q05513 = assay: pIC50, kinobeads binding competition; details: cell material: Lysate mix
Procedure, shortened: as §1

MTOR = MTOR (UniProt P42345); assay: pIC50, kinobeads binding competition; details: cell material: Jurkat cells
Procedure, shortened: as §1

PAK6 = PAK6 (UniProt Q9NQU5); assay: pIC50, kinobeads binding competition; details: cell material: Jurkat lysate
Procedure, shortened: as §1

PASK = PASK (UniProt Q96RG2); assay: pIC50, kinobeads binding competition; details: cell material: Jurkat cells
PASK, sequence (Q96RG2 whole entry): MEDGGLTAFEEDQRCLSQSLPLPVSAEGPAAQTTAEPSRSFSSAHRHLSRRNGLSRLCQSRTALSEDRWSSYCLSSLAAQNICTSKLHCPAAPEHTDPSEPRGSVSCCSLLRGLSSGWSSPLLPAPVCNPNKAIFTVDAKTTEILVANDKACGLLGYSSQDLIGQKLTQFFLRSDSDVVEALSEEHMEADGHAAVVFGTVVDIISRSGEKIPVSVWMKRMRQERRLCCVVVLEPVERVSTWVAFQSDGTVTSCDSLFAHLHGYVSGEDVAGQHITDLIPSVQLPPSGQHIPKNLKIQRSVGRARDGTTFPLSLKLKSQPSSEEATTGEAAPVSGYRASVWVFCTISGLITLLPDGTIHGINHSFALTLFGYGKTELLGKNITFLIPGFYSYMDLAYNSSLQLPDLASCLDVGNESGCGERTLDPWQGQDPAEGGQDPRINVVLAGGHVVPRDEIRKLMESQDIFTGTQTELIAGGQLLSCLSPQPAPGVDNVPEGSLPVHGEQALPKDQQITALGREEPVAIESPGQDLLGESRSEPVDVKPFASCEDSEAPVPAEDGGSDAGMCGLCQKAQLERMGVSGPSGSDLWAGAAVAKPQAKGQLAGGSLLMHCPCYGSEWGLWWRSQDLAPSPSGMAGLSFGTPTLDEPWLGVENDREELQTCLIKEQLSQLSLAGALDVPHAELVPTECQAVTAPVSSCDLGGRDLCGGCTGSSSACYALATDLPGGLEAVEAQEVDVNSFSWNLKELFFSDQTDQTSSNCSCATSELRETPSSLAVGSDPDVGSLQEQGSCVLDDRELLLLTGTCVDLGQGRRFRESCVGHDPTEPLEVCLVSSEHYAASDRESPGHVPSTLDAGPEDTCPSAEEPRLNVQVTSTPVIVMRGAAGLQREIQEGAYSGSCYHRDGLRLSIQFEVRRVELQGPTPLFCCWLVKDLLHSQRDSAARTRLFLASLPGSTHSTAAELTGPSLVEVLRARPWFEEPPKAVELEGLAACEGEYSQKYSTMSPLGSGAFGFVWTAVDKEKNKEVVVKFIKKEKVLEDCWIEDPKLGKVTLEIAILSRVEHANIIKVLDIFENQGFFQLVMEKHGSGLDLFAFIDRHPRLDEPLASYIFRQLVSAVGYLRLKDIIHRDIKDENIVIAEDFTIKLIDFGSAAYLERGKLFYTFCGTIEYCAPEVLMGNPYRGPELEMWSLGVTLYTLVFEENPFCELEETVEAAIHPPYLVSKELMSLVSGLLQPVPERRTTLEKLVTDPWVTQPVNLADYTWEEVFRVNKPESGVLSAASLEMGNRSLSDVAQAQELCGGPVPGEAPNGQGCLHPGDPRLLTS
Procedure, shortened: as §1

RIPK1 = RIPK1 (UniProt Q13546); assay: pIC50, kinobeads binding competition; details: cell material: Jurkat cells
Procedure, shortened: as §1

TYRO3 = TYRO3 (UniProt Q06418); assay: pIC50, kinobeads binding competition; details: cell material: Jurkat lysate
Procedure, shortened: as §1

UniProt Q6DT37 = assay: pIC50, kinobeads binding competition; details: cell material: Lysate mix
Procedure, shortened: as §1

For `O=C(NCCNC(=O)c1cc(Nc2cc(C3CC3)[nH]n2)nc(N2CCN(Cc3ccc(S(=O)(=O)F)cc3)CC2)n1)OC1CC/C=C/CCC1` (stereo not drawn), the pIC50 (PIK3CD) was < 4.52 and the pIC50 (UniProt P05129) was 4.77.
For `Cc1cc(Nc2cc(C(=O)NCCNC(=O)OC3CC/C=C/CCC3)nc(N3CCN(Cc4ccc(S(=O)(=O)F)cc4)CC3)n2)n[nH]1` (stereo not drawn), the pIC50 (STRADB) was < 4.52, the pIC50 (TWF1) was < 4.52 and the pIC50 (UniProt P78368) was < 4.52. For the same compound, the pIC50 (UniProt Q9P286) was < 4.52.
In the case of `CC#CC(=O)Nc1ccc2ncnc(Nc3cccc(Br)c3)c2c1` [EKI-785], the pIC50 (CDKL5) is reported as < 4.52, the pIC50 (NEK9) is reported as < 4.52 and the pIC50 (UniProt Q14289) is reported as 4.62. The pIC50 (UniProt Q9NWV4) was < 4.52.
For `CCc1cnn2c(NCc3ccc[n+]([O-])c3)cc(N3CCCC[C@H]3CCO)nc12` [dinaciclib], the pIC50 (CDKL5) was 6.12, the pIC50 (NEK9) was < 4.52 and the pIC50 (UniProt Q14289) was < 4.52. The pIC50 (UniProt Q9NWV4) was < 4.52.
In the case of `CCNC(=O)c1cc(Nc2cc(C)[nH]n2)nc(N2CCN(Cc3ccc(S(=O)(=O)F)cc3)CC2)n1`, the pIC50 (UniProt P19525) is reported as < 4.52, the pIC50 (UniProt P35590) is reported as < 4.52 and the pIC50 (UniProt Q05513) is reported as < 4.52.
`C#CCNC(=O)c1cc(Nc2cc(C3CC3)[nH]n2)nc(N2CCN(Cc3ccc(S(=O)(=O)F)cc3)CC2)n1` was tested, and the pIC50 (MTOR) was < 4.52, the pIC50 (PAK6) was 5.49 and the pIC50 (PASK) was 4.7. The pIC50 (RIPK1) was 5.32, the pIC50 (TYRO3) was < 4.52 and the pIC50 (UniProt Q6DT37) was < 4.52.

Source: the supplement of paper PMC12076712
